Experimental data published in PMC9817974, “Pharmacokinetic Basis for Using Saliva Matrine Concentrations as a Clinical Compliance Monitoring in Antitumor B Chemoprevention Trials in Humans” (Cancers, 2022).

Assays:
[1] = Single-dose oral pharmacokinetic study of ATB tablets in healthy human subjects (plasma and saliva, non-compartmental analysis); format: in vivo; settings: after 2400 mg ATB oral administration; LLOQ of Dict […]
Method: In addition, in vivo correlation between plasma and saliva concentrations was determined as the secondary outcome.
The ratio of drug concentration in plasma and saliva were calculated using Equations (1) and (2). (1) RCmax=Cmax saliva/Cmax plasma (2) RAUC=AUC0–24 saliva/AUC0–24 plasma […]
S2.1. Human Pharmacokinetic Study Design
The study was conducted in two phases. Two self-volunteered subjects participated in the study […]
Participants refrained from consumption of […]
dosing blood and saliva samples were collected. Each participant received single-dose oral […]
saliva sample kit for salivary collection. Plasma samples were then collected by centrifugation of […]
hour post-administration. […]
administration. […] Throughout the […]
collected and saline lock was removed. Participants returned the next day morning for 24-hour […]
Participants fasted 8-12 hours before each

[2] = Stability of ATB tablets (ICH storage conditions); settings: for remaining percentage in ATB tablets, Long term 3 months / remaining percentage in ATB tablets, Long term 6 months / remaining percentage in ATB tablets, Long term 12 months: 25 ± 2 °C/60 ± 5% RH
Method: Two independent batches of ATB tablets were tested according to International Conference on Harmonization (ICH) Guideline for long-term (12 months at 25 ± 2 °C/60 ± 5% RH), intermediate (6 months at 30 ± 2 °C/65 ± 5% RH), and accelerated (40 ± 2 °C/75 ± 5% RH) stability [12].

[3] = Sample stability of ATB components (bench, freeze-thaw, short-term, long-term); format: physicochemical; settings: in % (unit assumed)
Method: samples for calibration were prepared. The study and QC samples were prepared on the same day as the UPLC-MS/MS analysis was done.
Calibration curves were prepared the same way as described in section S1.2.2. The linearity of each calibration curve was determined by plotting the peak area ratio of Matr, Maac, Dict, and Frax to I.S. in plasma. […] The lower limit of […] was defined based on a signal-to-noise ratio of 10:1.
S1.2.4 Extraction recovery and matrix effect
The extraction recoveries of Matr, Maac, Dict, and Frax were determined by comparing the relative peak areas obtained from blank plasma spiked with analytes and those obtained from water spiked with the same amounts of analytes. Matrix effect was determined by comparing the peak areas of blank plasma extracts spikes with analytes and I.S. with those of the standard solutions dried and reconstituted with mobile phase. The quality control samples were prepared in plasma.
Bench work (25°C for 4 hours), short-term (-20°C for 7 days), long-term (-80°C for 4 months) and three freeze-thaw cycle stabilities were determined.

[4] = as above; format: physicochemical; settings: in % (unit assumed); remark: listed apart in the source

| SMILES | detection in plasma and saliva samples [1] | remaining percentage in ATB tablets, Long term 3 months [2] | remaining percentage in ATB tablets, Long term 6 months [2] | remaining percentage in ATB tablets, Long term 12 months [2] | remaining percentage in ATB tablets, Intermediate 3 months ([2]; 30 ± 2 °C/65 ± 5% RH) | remaining percentage in ATB tablets, Intermediate 6 months ([2]; 30 ± 2 °C/65 ± 5% RH) | remaining percentage in ATB tablets, Accelerated term 3 months ([2]; 40 ± 2 °C/75 ± 5% RH) | remaining percentage in ATB tablets, Accelerated term 6 months ([2]; 40 ± 2 °C/75 ± 5% RH) | Stability, 3 cycles freeze-thaw ([3]; HQC concentration level) | Stability, Bench work (4 hrs, 25 oC) ([3]; HQC concentration level) | Stability, Short-term (7 days, -20 oC) ([3]; HQC concentration level) | Stability, 3 cycles freeze-thaw ([3]; LOQ concentration level) | Stability, 3 cycles freeze-thaw ([3]; MQC concentration level) | Stability, Bench work (4 hrs, 25 oC) ([3]; MQC concentration level) | Stability, Long-term (6 months, -80 oC) ([4]; HQC concentration level) | Stability, Bench work (4 hrs, 25 oC) ([4]; LOQ concentration level) | Stability, Long-term (6 months, -80 oC) ([4]; LOQ concentration level) | Stability, Short-term (7 days, -20 oC) ([4]; LOQ concentration level) | Stability, Long-term (6 months, -80 oC) ([4]; MQC concentration level) | Stability, Short-term (7 days, -20 oC) ([4]; MQC concentration level) |
| --- | --- | --- | --- | --- | --- | --- | --- | --- | --- | --- | --- | --- | --- | --- | --- | --- | --- | --- | --- | --- |
| CC1=C2C(=O)O[C@@H](c3ccoc3)[C@]2(C)CCC1 [Frax, fraxinellone] | not detected in any study sample | 92.4 ± 6.4% | 81.2 ± 10.1% | 93.8 ± 1.0% | 112.5 ± 7.2% | 113.1 ± 7.2% | 84.3 ± 13.2% | 115.8 ± 1.5% | 98.9 ± 2.2 | 89.1 ± 9.9 | 99.1 ± 8.0 | 105.7 ± 3.2 | 104.0 ± 1.3 | 90.5 ± 8.0 | 94.8 ± 0.4 | 108.5 ± 5.0 | 85.7 ± 3.6 | 89.6 ± 0.5 | 90.1 ± 5.6 | 96.6 ± 5.8 |
| Oc1ccc2c(c1)OC[C@H]1c3cc4c(cc3O[C@@H]21)OCO4 [Maac, maackiain] | detected in 30 min plasma sample of only one participant | 81.1 ± 5.3% | 101.6±0.2% | 89.1 ± 4.2% |  |  |  |  | 114.7 ± 2.8 | 108.7 ± 8.1 | 91.2 ± 8.0 | 113.3 ± 6.4 | 114.6 ± 3.2 | 109.1 ± 5.9 | 92.3 ± 5.7 | 93.8 ± 11.6 | 87.0 ± 5.1 | 99.6 ± 1.4 | 85.5 ± 0.4 | 89.1 ± 11.0 |
